Laboratory results taken from patent US8563578B2, “Antitumor properties of NO modified protease inhibitors” (Onconox APS, priority 2008, dated 2013).

What was measured:
[1] = tested on: rat primary astrocytes; test: Cell viability by CV test, primary astrocytes; type: cell-based; settings: 24 h, Sag at its IC50 dose
Description: (§1) Rat glioma C6 and human glioblastoma U251 cell lines were a kind gift from Dr. Pedro Tranque (Universidad de Castilla-La Mancha, Albacete, Spain), murine melanoma B 16, and human adenocarcinoma HeLa, were a kind gift from Dr. Sinisa Radulovic (Institute for Oncology and Radiology of Serbia, Belgrade, Serbia) while mouse fibrosarcoma L929 was obtained from the European Collection of Animal Cell Cultures (Salisbury, UK). Human breast HCC1419 and prostate PC-3 cells were purchased from LGC Promochem srl (Venezia, Italy). Primary mouse fibroblasts and rat astrocytes were prepared as described (Mijatovic et al. 2004). […]
(§2) Reduction of 3-4,5-dimethylthiazol-2-yl)-2,5-diphenyltetrazolium bromide (MTT) to formazan depends on mitochondrial activity of cultured cells, absorption of crystal violet dye correlates with the number of adherent, live cells, while the release of cytosolic lactate dehydrogenase (LDH) indicates the disruption of membrane integrity caracteristic for necrotic cells. […] Mitohondrial-dependent production of formazan and intensity of absorbed crystal violet by adherent cells were assessed by an automated microplate reader at 570 nm, while the pyruvate-mediated conversion of 2,4-dinitrophenylhydrazine into visible hydrazone precipitate in LDH assay was measured at 492 nm. […]
(§3) FIG. 2. […] Cell viability was then evaluated by CV test. […]

[2] = tested on: mouse fibroblasts; test: Cell viability by CV test, primary fibroblasts; type: cell-based; settings: 24 h, Sag at its IC50 dose
Description: as §1, §2, §3

[3] = tested on: p-Akt in B16 cells; test: Akt phosphorylation (cELISA, Western blot), B16; type: cell-based, mouse; settings: 18.8 μM, B16 as representative (similar in C6)
Description: A slightly modified method for cell-based ELISA (cELISA) by Versteeg (Versteed et al., 2000) was used to measure the expression of galactocerebroside, glial fibrilar acidic protein (GFAP), myelin basic protein (MBP), cyclin D3, p53 and p-AKT. Briefly, at the end of cultivation period cells were fixed in 4% paraformaldehyde, endogenous peroxydase was quenched with 1% H2O2 in PBS containing 0.1% Triton X-100 (PBST), and unspecific binding of antibodies blocked with PBST solution containing 10% FCS. […] The absorbance at 450 nm was measured in an automated microplate reader 15 min after incubation with peroxydase substrate TMB and subsequently to addition of 0.1 M HCl. To facilitate comparison between treatments, the obtained absorbances were corrected for the cell number that was determined by crystal violet staining, as described in the original protocol. […]
FIG. 6. […] (C) B16 cells (1×10^4 cells/well) were incubated for 24 h with 18.8 μM Saq-NO2 with or without Akt VI (50μg/ml) or 3-MA (1 mM) and cell viability was assessed by MTT. […]

Row | SMILES | effect on viability of non-transformed primary astrocytes [1] | effect on viability of non-transformed primary fibroblasts [2] | p-Akt expression / phosphorylation of AKT [3]
1 | CC(C)(C)NC(=O)[C@@H]1C[C@@H]2CCCC[C@@H]2CN1C[C@@H](O)[C@H](Cc1ccccc1)NC(=O)[C@H](CC(N)=O)NC(=O)c1ccc2ccccc2n1 [Saq, Saquinavir, reference compound] | highly toxic | highly toxic | abrogated p-Akt expression
2 | CC(C)(C)NC(=O)[C@@H]1C[C@@H]2CCCC[C@@H]2CN1C[C@@H](O[N+](=O)[O-])[C@H](Cc1ccccc1)NC(=O)[C@H](CC(N)=O)NC(=O)c1ccc2ccccc2n1 [Saq-NO2, nitric ester of Saquinavir] | did not affect the viability | did not affect the viability | induced considerable transient phosphorylation of AKT
